Data as given in US10544143B2, “4-azaindole compounds” (BRISTOL-MYERS SQUIBB COMPANY, priority 2017, dated 2020).

Legend:
human TLR7 = human TLR7 (Homo sapiens (Human), UniProt Q9NYK1); assay: TLR7 inhibition reporter assay (HEK-Blue SEAP); type: cell-based; conditions: HEK-Blue cells overexpressing human TLR7, SEAP reporter, gardiquimod 7.5 μM
human TLR8 = human TLR8 (Homo sapiens (Human), UniProt Q9NR97); assay: TLR8 inhibition reporter assay (HEK-Blue SEAP); conditions: read-out: TLR8 IC50; HEK-Blue cells overexpressing human TLR8, SEAP reporter, R848 15.9 μM;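 further: SEAP driven by IFN-β minimal promoter carrying NF-κB and AP-1 sites, compounds dosed 0.05 nM to 50 µM for 22 h, inhibition scaled between agonist-plus-DMSO and reference-inhibitor wells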
Method: HEK-Blue™-cells (Invivogen) overexpressing human TLR7, TLR8 or TLR9 receptors were used for screening inhibitors of these receptors using an inducible SEAP (secreted embryonic alkaline phosphatase) reporter gene under the control of the IFN-β minimal promoter fused to five NF-κB and AP-1-binding sites. Briefly, cells are seeded into Greiner 384 well plates (15000 cells per well for TLR7, 20,000 for TLR8 and 25,000 for TLR9) and then treated with test compounds in DMSO to yield a final dose response concentration range of 0.05 nM-50 μM. After a 30 minute compound pre-treatment at room temperature, the cells are then stimulated with a TLR7 ligand (gardiquimod at a final concentration of 7.5 μM), TLR8 ligand (R848 at a final concentration of 15.9 μM) or TLR9 ligand (ODN2006 at a final concentration of 5 nM) to activate NF-κB and AP-1 which induce the production of SEAP. After a 22 hour incubation at 37° C., 5% CO2, SEAP levels are determined with the addition of HEK-Blue™ Detection reagent (Invivogen), a cell culture medium that allows for detection of SEAP, according to manufacturer's specifications.

human TLR9 = human TLR9 (Homo sapiens (Human), UniProt Q9NR96); assay: TLR9 inhibition reporter assay (HEK-Blue SEAP); conditions: read-out: TLR9 IC50; HEK-Blue cells overexpressing human TLR9, SEAP reporter, ODN2006 5 nM;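 further: SEAP driven by an IFN-β minimal promoter with NF-κB and AP-1 sites, read after 22 h, compounds dosed 0.05 nM–50 µM, inhibition scaled between agonist plus DMSO and reference-inhibitor wells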
Chain of human TLR9 (Q9NR96 26-1032): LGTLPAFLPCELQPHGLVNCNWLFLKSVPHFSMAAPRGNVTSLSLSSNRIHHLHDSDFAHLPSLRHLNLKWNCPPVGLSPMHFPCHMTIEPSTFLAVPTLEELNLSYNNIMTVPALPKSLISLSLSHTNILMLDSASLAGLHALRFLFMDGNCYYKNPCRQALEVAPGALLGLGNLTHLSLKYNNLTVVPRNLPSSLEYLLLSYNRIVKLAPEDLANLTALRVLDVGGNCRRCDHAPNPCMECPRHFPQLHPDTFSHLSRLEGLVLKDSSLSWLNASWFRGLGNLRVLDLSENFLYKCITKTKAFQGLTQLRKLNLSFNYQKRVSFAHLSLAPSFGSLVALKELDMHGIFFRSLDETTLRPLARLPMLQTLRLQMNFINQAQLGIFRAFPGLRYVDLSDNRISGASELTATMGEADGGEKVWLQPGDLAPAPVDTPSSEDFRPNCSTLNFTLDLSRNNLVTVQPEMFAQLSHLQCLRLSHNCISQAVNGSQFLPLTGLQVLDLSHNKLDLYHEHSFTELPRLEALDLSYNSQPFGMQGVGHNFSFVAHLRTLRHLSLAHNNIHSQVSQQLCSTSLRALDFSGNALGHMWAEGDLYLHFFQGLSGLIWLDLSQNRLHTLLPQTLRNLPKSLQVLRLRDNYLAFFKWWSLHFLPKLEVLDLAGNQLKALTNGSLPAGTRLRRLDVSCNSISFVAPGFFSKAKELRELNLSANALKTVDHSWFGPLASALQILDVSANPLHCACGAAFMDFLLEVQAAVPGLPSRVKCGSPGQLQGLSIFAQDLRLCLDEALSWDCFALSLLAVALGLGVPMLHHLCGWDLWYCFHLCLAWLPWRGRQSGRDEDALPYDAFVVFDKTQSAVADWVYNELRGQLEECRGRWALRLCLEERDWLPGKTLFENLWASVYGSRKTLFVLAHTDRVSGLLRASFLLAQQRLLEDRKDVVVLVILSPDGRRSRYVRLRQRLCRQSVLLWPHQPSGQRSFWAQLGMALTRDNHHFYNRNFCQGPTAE

Chain of human TLR8 (Q9NR97 27-1041): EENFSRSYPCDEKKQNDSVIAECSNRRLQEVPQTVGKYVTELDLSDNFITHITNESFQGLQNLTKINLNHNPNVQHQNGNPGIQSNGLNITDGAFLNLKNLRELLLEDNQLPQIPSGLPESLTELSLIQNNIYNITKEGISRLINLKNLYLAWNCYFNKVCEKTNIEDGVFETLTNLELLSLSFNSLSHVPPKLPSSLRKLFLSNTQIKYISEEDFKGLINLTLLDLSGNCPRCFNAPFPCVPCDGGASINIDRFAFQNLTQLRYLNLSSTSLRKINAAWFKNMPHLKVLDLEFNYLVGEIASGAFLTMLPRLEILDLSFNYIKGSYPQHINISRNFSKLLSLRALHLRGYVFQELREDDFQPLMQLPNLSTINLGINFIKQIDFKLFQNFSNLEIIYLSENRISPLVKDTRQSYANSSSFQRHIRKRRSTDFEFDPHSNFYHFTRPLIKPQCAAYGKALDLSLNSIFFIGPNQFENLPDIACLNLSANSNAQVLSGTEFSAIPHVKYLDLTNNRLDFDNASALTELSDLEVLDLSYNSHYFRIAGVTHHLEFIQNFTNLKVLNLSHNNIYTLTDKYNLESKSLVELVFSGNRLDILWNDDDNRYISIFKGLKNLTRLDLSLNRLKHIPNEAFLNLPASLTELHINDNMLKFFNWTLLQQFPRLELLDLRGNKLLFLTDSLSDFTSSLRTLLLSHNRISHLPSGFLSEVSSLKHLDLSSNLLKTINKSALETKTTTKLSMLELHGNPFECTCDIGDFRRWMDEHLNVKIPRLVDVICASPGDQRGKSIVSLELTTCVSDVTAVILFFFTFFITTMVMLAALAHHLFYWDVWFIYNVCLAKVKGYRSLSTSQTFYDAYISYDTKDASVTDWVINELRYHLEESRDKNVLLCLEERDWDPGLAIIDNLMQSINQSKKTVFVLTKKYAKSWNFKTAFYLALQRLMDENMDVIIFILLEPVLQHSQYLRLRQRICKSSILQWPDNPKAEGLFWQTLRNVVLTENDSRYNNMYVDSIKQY
Chain of human TLR7 (Q9NYK1 27-1049): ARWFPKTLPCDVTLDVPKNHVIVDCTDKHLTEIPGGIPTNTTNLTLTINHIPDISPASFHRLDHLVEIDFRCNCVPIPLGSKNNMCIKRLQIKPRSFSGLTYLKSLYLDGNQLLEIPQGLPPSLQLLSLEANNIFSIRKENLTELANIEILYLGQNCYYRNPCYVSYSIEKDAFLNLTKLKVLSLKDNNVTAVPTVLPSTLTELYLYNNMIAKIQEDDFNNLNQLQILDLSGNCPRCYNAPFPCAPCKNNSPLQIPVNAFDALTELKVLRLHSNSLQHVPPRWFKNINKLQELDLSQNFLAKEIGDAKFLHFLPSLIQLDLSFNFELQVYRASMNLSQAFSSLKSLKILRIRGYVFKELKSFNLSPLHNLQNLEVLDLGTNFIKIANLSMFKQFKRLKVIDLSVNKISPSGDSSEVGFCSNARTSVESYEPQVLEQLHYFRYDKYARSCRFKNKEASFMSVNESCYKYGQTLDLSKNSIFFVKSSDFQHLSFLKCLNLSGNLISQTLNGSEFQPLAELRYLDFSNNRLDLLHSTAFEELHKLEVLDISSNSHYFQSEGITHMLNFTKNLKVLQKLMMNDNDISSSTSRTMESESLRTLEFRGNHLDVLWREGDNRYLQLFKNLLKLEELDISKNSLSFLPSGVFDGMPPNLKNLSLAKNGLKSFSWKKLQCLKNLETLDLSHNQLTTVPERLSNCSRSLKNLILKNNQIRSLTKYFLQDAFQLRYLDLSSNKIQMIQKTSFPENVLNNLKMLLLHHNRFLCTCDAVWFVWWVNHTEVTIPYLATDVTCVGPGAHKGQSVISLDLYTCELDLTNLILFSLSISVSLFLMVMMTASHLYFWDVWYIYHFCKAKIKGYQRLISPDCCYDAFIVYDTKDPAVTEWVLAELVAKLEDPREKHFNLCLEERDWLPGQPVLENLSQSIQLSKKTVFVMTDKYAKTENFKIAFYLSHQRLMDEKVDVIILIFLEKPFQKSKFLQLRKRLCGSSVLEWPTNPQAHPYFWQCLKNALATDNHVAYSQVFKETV

Row | IC50 (human TLR7) | IC50 (human TLR8) | IC50 (human TLR9) | SMILES
1 | 8.3 nM | 12 nM | 362 nM | Cc1c(-c2[nH]c3ccc(C4CCNCC4)nc3c2C(C)C)cn(C)c(=O)c1C [Example 519]
2 | 0.8 nM | 7 nM | 285 nM | COc1cc(-c2[nH]c3ccc(C4CCNCC4)nc3c2C(C)C)cn2ncnc12 [Example 520]
3 | 0.62 nM | 1.3 nM | 238 nM | Cc1c(-c2[nH]c3ccc(C4CCNCC4)nc3c2C(C)C)cn2ncnc2c1C [Example 521]
4 | 2.6 nM | 495 nM | 144 nM | Cc1cc(-c2[nH]c3cc(C)c(C4CCNCC4)nc3c2C(C)C)cc(C)n1 [Example 522]
5 | 1.2 nM | 147 nM | 1470 nM | COc1cc(-c2[nH]c3cc(C)c(C4CCNCC4)nc3c2C(C)C)cn2ncnc12 [Example 523]
6 | 0.88 nM | 6.7 nM | 407 nM | COc1cc(-c2[nH]c3cc(F)c(C4CCNCC4)nc3c2C(C)C)cn2ncnc12 [Example 524]
7 | 0.18 nM | 48 nM | 771 nM | Cc1cc2[nH]c(-c3cc(C)c4ncnn4c3)c(C(C)C)c2nc1C1CCNCC1 [Example 525]
8 | 7.3 nM | 3 nM | 1160 nM | Cc1cc(-c2[nH]c3ccc(C4CCN(C5CCOCC5)CC4)nc3c2C(C)C)cn(C)c1=O [Example 527]
9 | 2.9 nM | 12 nM | 1830 nM | Cc1cc(-c2[nH]c3ccc(C4CCN(CC(=O)N(C)C)CC4)nc3c2C(C)C)cn(C)c1=O [Example 529]
10 | 7.1 nM | 8.8 nM | 4760 nM | CNC(=O)CN1CCC(c2ccc3[nH]c(-c4cc(C)c(=O)n(C)c4)c(C(C)C)c3n2)CC1 [Example 530]
11 | 19 nM | 21 nM | 1290 nM | Cc1cc(-c2[nH]c3ccc(C4CCN(C(=O)CN(C)C)CC4)nc3c2C(C)C)cn(C)c1=O [Example 531]
12 | 0.58 nM | 4.4 nM | 3590 nM | CNC(=O)CN1CCC(c2ccc3[nH]c(-c4cc(C)c5ncnn5c4)c(C(C)C)c3n2)CC1 [Example 532]
13 | 0.5 nM | 3.3 nM | 1460 nM | Cc1cc(-c2[nH]c3ccc(C4CCN(CC(=O)N(C)C)CC4)nc3c2C(C)C)cn2ncnc12 [Example 533]
14 | 1.2 nM | 8 nM | 4280 nM | Cc1cc(-c2[nH]c3ccc(C4CCN(C5COC5)CC4)nc3c2C(C)C)cn2ncnc12 [Example 534]
15 | 2 nM | 8.6 nM | 5720 nM | COc1cc(-c2[nH]c3ccc(C4CCN(C5COC5)CC4)nc3c2C(C)C)cn2ncnc12 [Example 535]
16 | 0.66 nM | 4.1 nM | 2660 nM | CNC(=O)CN1CCC(c2ccc3[nH]c(-c4cc(OC)c5ncnn5c4)c(C(C)C)c3n2)CC1 [Example 536]
17 | 2.1 nM | 7.1 nM | 2850 nM | COc1cc(-c2[nH]c3ccc(C4CCN(CC(=O)N(C)C)CC4)nc3c2C(C)C)cn2ncnc12 [Example 537]
18 | 2 nM | 3.3 nM | 8180 nM | Cc1c(-c2[nH]c3ccc(C4CCN(C5COC5)CC4)nc3c2C(C)C)cn2ncnc2c1C [Example 538]
19 | 0.47 nM | 0.82 nM | 3320 nM | CNC(=O)CN1CCC(c2ccc3[nH]c(-c4cn5ncnc5c(C)c4C)c(C(C)C)c3n2)CC1 [Example 539]
20 | 1.1 nM | 1.4 nM | 1950 nM | Cc1c(-c2[nH]c3ccc(C4CCN(CC(=O)N(C)C)CC4)nc3c2C(C)C)cn2ncnc2c1C [Example 540]
21 | 1.2 nM | 0.36 nM | 1430 nM | Cc1c(-c2[nH]c3ccc(C4CCN(CC(C)(C)O)CC4)nc3c2C(C)C)cn2ncnc2c1C [Example 541]
22 | 24 nM | 17 nM | 9240 nM | Cc1c(-c2[nH]c3ccc(C4CCN(C5COC5)CC4)nc3c2C(C)C)cn(C)c(=O)c1C [Example 542]
23 | 14 nM | 5.3 nM | 2280 nM | Cc1c(-c2[nH]c3ccc(C4CCN(C5CCOCC5)CC4)nc3c2C(C)C)cn(C)c(=O)c1C [Example 543]
24 | 11 nM | 6.4 nM | 5660 nM | CNC(=O)CN1CCC(c2ccc3[nH]c(-c4cn(C)c(=O)c(C)c4C)c(C(C)C)c3n2)CC1 [Example 544]
25 | 22 nM | 7.5 nM | 2460 nM | Cc1c(-c2[nH]c3ccc(C4CCN(CC(=O)N(C)C)CC4)nc3c2C(C)C)cn(C)c(=O)c1C [Example 545]
26 | 9.5 nM | 1.6 nM | 1380 nM | Cc1c(-c2[nH]c3ccc(C4CCN(CC(C)(C)O)CC4)nc3c2C(C)C)cn(C)c(=O)c1C [Example 546]

Row | IC50 (human TLR7) | IC50 (human TLR8) | IC50 (human TLR9) | SMILES
27 | 0.27 nM | 0.55 nM | 789 nM | Cc1cc(-c2[nH]c3ccc(C4CCN(CC(C)(C)O)CC4)nc3c2C(C)C)cn2ncnc12 [Example 547]
28 | 0.71 nM | 0.98 nM | 1090 nM | COc1cc(-c2[nH]c3ccc(C4CCN(CC(C)(C)O)CC4)nc3c2C(C)C)cn2ncnc12 [Example 548]
29 | 1.8 nM | 18 nM | 401 nM | COc1cc(-c2[nH]c3ccc(C4CCN(C(=O)CN(C)C)CC4)nc3c2C(C)C)cn2ncnc12 [Example 549]
30 | 0.87 nM | 15 nM | 796 nM | Cc1cc(-c2[nH]c3ccc(C4CCN(C(=O)CN(C)C)CC4)nc3c2C(C)C)cn2ncnc12 [Example 550]
31 | 0.94 nM | 5.5 nM | 582 nM | Cc1c(-c2[nH]c3ccc(C4CCN(C(=O)CN(C)C)CC4)nc3c2C(C)C)cn2ncnc2c1C [Example 551]
32 | 0.83 nM | 2.1 nM | 4100 nM | Cc1cc(-c2[nH]c3ccc(C4CCN(CCS(C)(=O)=O)CC4)nc3c2C(C)C)cn2ncnc12 [Example 552]
33 | 0.63 nM | 3.2 nM | 537 nM | Cc1cc(-c2[nH]c3ccc(C4CCN(CC#N)CC4)nc3c2C(C)C)cn2ncnc12 [Example 553]
34 | 1.5 nM | 2.5 nM | 2860 nM | COc1cc(-c2[nH]c3ccc(C4CCN(CCS(C)(=O)=O)CC4)nc3c2C(C)C)cn2ncnc12 [Example 554]
35 | 1.7 nM | 1.1 nM | 5080 nM | Cc1c(-c2[nH]c3ccc(C4CCN(CCS(C)(=O)=O)CC4)nc3c2C(C)C)cn2ncnc2c1C [Example 556]
36 | 0.66 nM | 1.2 nM | 440 nM | Cc1c(-c2[nH]c3ccc(C4CCN(CC#N)CC4)nc3c2C(C)C)cn2ncnc2c1C [Example 557]
37 | 1.2 nM | 5.6 nM | 3430 nM | COc1cc(-c2[nH]c3ccc(C4CCN(CC(N)=O)CC4)nc3c2C(C)C)cn2ncnc12 [Example 558]
38 | 1.2 nM | 1 nM | 3820 nM | Cc1c(-c2[nH]c3ccc(C4CCN(CC(N)=O)CC4)nc3c2C(C)C)cn2ncnc2c1C [Example 560]
39 | 0.64 nM | 3 nM | 5650 nM | Cc1cc(-c2[nH]c3ccc(C4CCN(C5CCN(C)C5=O)CC4)nc3c2C(C)C)cn2ncnc12 (stereo not drawn) [Example 561]
40 | 1.9 nM | 1.1 nM | 6480 nM | COc1cc(-c2[nH]c3ccc(C4CCN(C5CCN(C)C5=O)CC4)nc3c2C(C)C)cn2ncnc12 (stereo not drawn) [Example 562]
41 | 0.83 nM | 2.4 nM | 4260 nM | Cc1c(-c2[nH]c3ccc(C4CCN(C5CCN(C)C5=O)CC4)nc3c2C(C)C)cn2ncnc2c1C (stereo not drawn) [Example 563]
42 | 8.8 nM | 6.9 nM | 3220 nM | CNC(=O)CN1CCC(c2ccc3[nH]c(-c4cn(C)c(=O)c(Cl)c4C)c(C(C)C)c3n2)CC1 [Example 565]
43 | 24 nM | 18 nM | 19000 nM | Cc1c(-c2[nH]c3ccc(C4CCN(C5COC5)CC4)nc3c2C(C)C)cn(C)c(=O)c1Cl [Example 566]
44 | 18 nM | 18 nM | 2320 nM | Cc1c(-c2[nH]c3ccc(C4CCN(CC(=O)N(C)C)CC4)nc3c2C(C)C)cn(C)c(=O)c1Cl [Example 567]
45 | 6 nM | 3.8 nM | 2080 nM | CCCN1CCC(c2ccc3[nH]c(-c4cn(C)c(=O)c(Cl)c4C)c(C(C)C)c3n2)CC1 [Example 568]
46 | 11 nM | 3 nM | 2180 nM | Cc1c(-c2[nH]c3ccc(C4CCN(CC(C)C)CC4)nc3c2C(C)C)cn(C)c(=O)c1Cl [Example 569]
47 | 10 nM | 57 nM | 143 nM | Cc1c(-c2[nH]c3ccc(C4CCN(C(=O)CN(C)C)CC4)nc3c2C(C)C)cn(C)c(=O)c1Cl [Example 570]
48 | 4.6 nM | 25 nM | 1200 nM | Cc1cc2[nH]c(-c3cc(C)c4ncnn4c3)c(C(C)C)c2nc1C1CCN(CC(C)(C)O)CC1 [Example 572]
49 | 0.99 nM | 9.1 nM | 3230 nM | COc1cc(-c2[nH]c3cc(F)c(C4CCN(CCS(C)(=O)=O)CC4)nc3c2C(C)C)cn2ncnc12 [Example 573]
50 | 3 nM | 47 nM | 11900 nM | COc1cc(-c2[nH]c3cc(F)c(C4CCN(C5COC5)CC4)nc3c2C(C)C)cn2ncnc12 [Example 574]
51 | 0.44 nM | 121 nM | 1350 nM | Cc1cc2[nH]c(-c3cc(C)c4ncnn4c3)c(C(C)C)c2nc1C1CCN(C2CCOCC2)CC1 [Example 575]
52 | 0.69 nM | 7.4 nM | 1880 nM | COc1cc(-c2[nH]c3cc(F)c(C4CCN(C(=O)CN(C)C)CC4)nc3c2C(C)C)cn2ncnc12 [Example 577]

Row | SMILES | IC50 (human TLR7) | IC50 (human TLR8) | IC50 (human TLR9)
53 | COc1ccc(-c2[nH]c3ccc(C4CCNCC4)nc3c2C(C)C)cc1OC [Example 526] | 8.8 nM | 14 nM | 666 nM
